# Residues, ends and D or L forms follow the SMILES beside them. *: point of attachment. Boc = CC(C)(C)OC(=O)*; Bn = c1ccc(C*)cc1
row,melting point,SMILES
1,54 to 57 °C,COC(=O)c1ccccc1-c1cc(-c2ccccn2)on1
2,185 to 187 °C,COc1ccc(C(=O)c2cc(Cl)ccc2NS(=O)(=O)c2ccc(C)cc2)c(O)c1OC
3,195 to 200 °C,CCCCCc1nc2c(Nc3ccc(Cl)c(Cl)c3)nc3ccccc3c2[nH]1
4,108 to 109 °C,CCSc1nc(-c2ccc(OC)cc2)c(-c2ccc(OC)cc2)[nH]1
5,207 to 209 °C,CC(C)c1cccc(C(C)C)c1NC(=O)c1ccccc1N
6,204 to 206 °C,COc1cc([N+](=O)[O-])c2ncccc2c1Cl
7,144 to 148 °C,CCC(C)(C)c1ccc(Oc2cc(N)c(O)c([N+](=O)[O-])c2)c(C(C)(C)CC)c1
8,165 to 166 °C,CC(C)(Oc1ccc(CCC(=O)c2ccc(-c3ccc(C(F)(F)F)cc3)s2)c(F)c1F)C(=O)O
9,127 to 128 °C,Cc1oc(-c2ccccc2)nc1COc1ccc(OCc2oc(-c3ccccc3)nc2C=O)cc1
10,91 to 92 °C,CCON=C(CC)C1=C(O)CC(c2ccc(Sc3ncc(C(F)(F)F)cc3F)cc2)CC1=O (stereo not given)
11,90 to 94 °C,COCOc1cc2c(cc1-c1cc(-c3ccc(C(=O)O)cc3)ccc1-c1ccccc1)C(C)(C)CCC2(C)C
12,99 °C,CC(=O)Nc1ccccc1S(=O)(=O)NCCCCN1CCN(c2ncccn2)CC1
13,80 to 85 °C,CC(C)(C)c1ccc(S(=O)(=O)N2c3ccccc3C[C@H]2C(=O)NCc2ccc(CC(=O)O)cc2)cc1
14,253 to 254 °C,O=C1CNc2ccc(S(=O)(=O)Oc3ccccc3)cc2N1
15,206 to 207 °C,CCCc1nc2c(N)nc3ccccc3c2n1Cc1cc(-c2cccnc2)on1
16,55 to 60 °C,O=C(NCc1ccccc1)c1ccnc(N2CCC(c3ccccc3)CC2=O)c1 (stereo not given)
17,152 to 155 °C,CCCCOc1ccc2c(C(F)(F)F)c(OC)ccc2c1C(=O)N(C)CC(=O)O
18,94.5 to 95.3 °C,C=CCC(Cc1ccc(OC)c(OCCc2ccccc2)c1)NC(=O)OC(C)(C)C (stereo not given)
19,115 to 117 °C,CCN(CC)c1ccc(-c2ncccc2S(=O)(=O)Nc2ncc(C)nc2OC)cc1
20,152 to 153 °C,N#CCCNC(=O)c1cccc(-c2ccc3c(c2)N(Cc2cc(Cl)ccc2Cl)CC3)c1
21,291 to 293 °C,CC(=O)Nc1cc(Oc2ccc3c(C(=O)Nc4cc(-n5cnc(C)c5)cc(C(F)(F)F)c4)cccc3c2)ncn1
22,139 to 140 °C,COC(=O)C(=O)Nc1cc(OCCCOc2ccc(C(C)=O)c(O)c2CCC(F)(F)F)c(Br)cc1C
23,80 to 81 °C,CC=CCn1c(C)c(C)c2cnnc(OCc3cccnc3)c21

row,melting point,SMILES
1,178 °C,CSc1ncc(S(=O)(=O)NC(C)(C)C)c(Nc2cccc(C)c2)n1
2,154 to 155 °C,Brc1ccc(-c2cc3c(ccc4ccccc43)o2)cc1
3,119 to 120 °C,CCOC(=O)NC(=S)Nc1ccc(C(=O)OC(C)(C)C)cc1
4,180 to 184 °C,COC(=O)CSc1nc(Nc2ccc(N3CCC(C)CC3)cc2)ncc1[N+](=O)[O-]
5,139 to 141 °C,COc1ccc(C=C(C#N)c2c[nH]c3ccccc23)cc1OC
6,155 to 157 °C,CC(C)(C)OC(=O)c1cc(-c2ccccc2)c(=O)n2ccc3ccsc3c12
7,174 °C,CC(=O)c1ccc(NC(=O)c2ccc(C=O)cc2)cc1
8,230 to 240 °C,CC(C)C1C(=O)N(CC(=O)O)C(c2ccccc2)=CN1C(=O)c1cccnc1 (racemic)
9,161 to 162 °C,CCOC(=O)/C=C/c1ccc(C=Cc2nc(-c3ccccc3)oc2C)cc1
10,37 to 39 °C,Cc1ccc(OCCCCCCN2CCN(c3nccs3)CC2)cc1
11,101 to 103 °C,COc1ccc(CN2CCc3c(c(=O)oc4cc(OC)ccc34)C2)cc1
12,124 to 126 °C,CN1C(=O)C(=O)C(c2ccc(Cl)cc2)Sc2ccccc21 (stereo not given)
13,273 to 275 °C,CNc1ccc(-c2cnc3[nH]cc(C(=O)C4(C)CCCCC4)c3n2)cc1
14,163 to 164 °C,Cc1ccccc1C(NCC(=O)Nc1c(C(C)C)cccc1C(C)C)c1ccccc1 (stereo not given)
15,130 to 131 °C,CCOC(=O)C1=C(C)NC(c2ccco2)=C(C(=O)OCC)C1c1cccc([N+](=O)[O-])c1 (stereo not given)
16,84 to 86 °C,COc1ccc(-c2cc(C(O)C(F)(F)F)[nH]c2-c2ccc(OC)cc2)cc1 (stereo not given)
17,272 °C,Cn1nnc2c(N3CCOCC3)nc(-c3ccc(NC(=O)Nc4cccnc4)cc3)nc21
18,131 °C,COc1ccc2cc([C@H](C)C(=O)OCCN3CCC(C)(SN=O)CC3)ccc2c1
19,72 to 73 °C,COC(=O)Cc1ccc2c(c1)C(OC)=Cc1ccccc1C2
20,145 to 150 °C,CC1Cc2cc3c(cc2C(c2ccc([N+](=O)[O-])cc2)=NN1c1nccs1)OCO3 (stereo not given)
21,208 to 209 °C,CCn1nc2c(N)nc3ccccc3c2c1CC(C)C
22,162 °C,Cc1cc(Nc2ccnc(Nc3ccc(S(=O)(=O)N4CCC(C(O)c5ccncc5)CC4)cc3)n2)ccc1F (stereo not given)

# Further lines, the compound ahead of its results:
row,SMILES,melting point
1,COc1ccc(/C=C(\C#N)c2ccc(Br)cc2)cc1OC1CCCC1,116 to 119 °C
2,Cc1cc(F)c(-n2ccc(O)n2)cc1SCC(F)(F)F,166 to 168 °C
3,O=C(NC(=O)c1c(F)cccc1Cl)Nc1ccc(Br)cn1,207 to 213 °C
4,CC(C)(C)OC(=O)CNNC(=O)OCc1ccccc1,61 to 62 °C
5,N=C(N)Nc1nc(CSCCNC(N)=N[N+](=O)[O-])ns1,184 to 186 °C
6,CC1CN(Cc2ccccc2)CC1=NO (stereo not given),85 to 94 °C
7,CN(C(=O)OCc1ccccc1)C1CCN(CC2(C)Cn3cc([N+](=O)[O-])nc3O2)CC1 (stereo not given),139 °C
8,COC(=S)c1ccnc(C)n1,68 °C
9,CCCCCCCCCCCCCCCCCCOc1cn(Cc2ccccc2)c(CO)cc1=O,120 to 121 °C
10,CCOC(=O)c1cn(C2CC2)c2cc(Br)c(F)c(C)c2c1=O,195 to 197 °C
11,Cn1cc(OS(C)(=O)=O)c(=O)c2ccc(S(C)=O)cc21 (stereo not given),248 °C
12,O=C(Cn1c(-c2ccccc2)ncc(NC(=O)OCc2ccc(C(=O)O)cc2)c1=O)NC(Cc1ccccc1)C(=O)C(F)(F)F (stereo not given),202 to 207 °C
13,C=CC(=O)Oc1c(C(C)c2cc(C(C)(C)C)cc(C(C)(C)C)c2O)cc(C(C)(C)C)cc1C(C)(C)C (stereo not given),190 to 192 °C
14,CCOC(=O)CN1C(=O)C(=C(C)C)SC1=Nc1cc(-n2c(=O)cc(C(F)(F)F)n(C)c2=O)c(F)cc1Cl,67 to 80 °C
15,CC(=O)ON(C)C(=O)C(C)Nc1c([N+](=O)[O-])cc(C)cc1[N+](=O)[O-] (stereo not given),137 to 138 °C
16,CCC12CCC3=C(CC(C)c4cc(OC)ccc43)C1=CCC21OCCO1 (stereo not given),116 to 119 °C
17,O=[N+]([O-])c1ccc(C2OCc3ccc(CO)cc3CO2)cc1 (stereo not given),146 °C
18,CC1=C(C(=O)OC(C)C)C(c2cccc(Cl)c2Cl)N(C(=O)OC(C)C)C(=S)N1 (stereo not given),179 to 181 °C
19,CC(C)OC(=O)n1c(Cc2ccccc2)noc1=O,80 °C
20,NC(=O)c1ncn2c1nc(N1CCOCC1)c1ccccc12,> 300 °C
21,CCOC(=O)c1cc(OC)c(C(=O)OCC)cc1Br,61 to 63 °C
22,COC(=O)C(CC(C)C)NC(=O)C(C)NC(=O)C(Cc1ccc(OCc2ccccc2)cc1)NC(=O)OC(C)(C)C (stereo not drawn) (Boc-Tyr(Bn)-Ala-Leu-OMe; configuration not given here),128 to 129 °C
23,CC[C@H]1[C@@H](O)C(F)(F)C(=O)N1c1ccc(C#N)c(OC)c1,161 to 164 °C
24,CC(C#N)c1ccc(CCc2ccccc2C(=O)O)cc1 (stereo not given),73 °C
25,COC1(c2cc(F)cc(Sc3ccc(C(=O)C(F)(F)F)cc3)c2)CCOCC1,63 °C

row,SMILES,melting point
1,CCOC(=O)C1=C(N)NC(C)=C(C(=O)OC)C1c1cccc([N+](=O)[O-])c1 (stereo not given),124 °C
2,CC1=C(C2C=CN(C(=O)OCC(Cl)(Cl)Cl)C=C2)SCC(=O)N1,158 to 160 °C
3,Cc1c(F)c(=O)n(-c2cc(OC(C)C)c(Cl)cc2F)c(=O)n1C,139 to 141 °C
4,O=C(SC(SC(=O)c1ccccc1)C(=O)O)c1ccccc1,82 to 83 °C
5,Cc1cc(C)cc(Sc2c(C(C)C)nc(CCOC(N)=O)n2C)c1,138 to 140 °C
6,CC(=O)NCCc1ccc(CN2CCN(c3ccc(F)cc3)CC2)cc1,121 to 123 °C
7,O=C(NC1C(=O)N(CCCO)c2ccccc2N(c2ccccc2)C1=O)Oc1ccccc1 (stereo not given),203 to 204 °C
8,OC[C@H]1O[C@H]1c1ccsc1 (racemic),63 to 65 °C
9,CC1NC(=O)NN=C1c1ccc(NC(=O)CN2CCOCC2)cc1 (stereo not given),244 to 247 °C
10,NC(=O)c1c(N)sc2c1CCC1(C2)OCCO1,157 to 158 °C
11,OC1(c2cccc(Cl)c2)CCN(c2nc3ccc(C(F)(F)F)cc3[nH]2)CC1,247 °C
12,CCCCCCc1ccc(N2C=CC(=C=C3C(C#N)C(=C(C#N)C#N)OC3(C)C)C=C2)cc1 (stereo not given),193 °C
13,N#Cc1cccc(C(=O)Nc2ccccc2N)c1,197 to 200 °C
14,O=C(Nc1cccc2c(=O)cc(C(=O)O)oc12)c1ccc2c(c1)CC(CCCc1ccccc1)O2 (stereo not given),184 to 185 °C
15,CC(C)CCSC1CC(CO)OC1n1ccc(=O)[nH]c1=O (stereo not given),131 to 133 °C
16,COC1CN(CCCNc2ncccn2)CCC1NC(=O)C1=CC(Cl)(OC)C(N)C=C1 (stereo not given),158 °C
17,CCOC(=O)C(C#N)=Cc1ccc([N+](=O)[O-])cc1C,180 to 210 °C
18,CCC[C@H](NC(=O)CNC)C(=O)N[C@@H](CCCNC(=N)N)C(=O)N[C@@H](C)P(=O)(O)O,200 °C
19,O=C(OC1CCN(Cc2ccccc2)CC1)c1ccccc1[N+](=O)[O-],98 to 99 °C
20,CNC(=O)c1cc(Br)cc(F)c1Nc1nc(Cl)ncc1Cl,246 to 249 °C
21,Nc1nc(Cl)cc(OC(F)(F)F)n1,55 to 56 °C
22,O=c1[nH]c2ccccc2n1CCN1CCN(c2ccc(O)c(C(F)(F)F)c2)CC1,> 250 °C
23,O=C(Nc1ccc2cccnc2c1)c1cc2cc(F)ccc2n1Cc1cccc(F)c1,222 to 223 °C
24,COC(=O)CCC(=O)CBr,12 to 15 °C
25,O=C1CSC(=S)N1C(=O)Nc1ccc2nc(S)sc2c1,212 to 217 °C
